Results from EP0513997A1, “Antithrombotic compositions” (CHINOIN Gyogyszer és Vegyészeti Termékek Gyára RT., priority 1991, dated 1992).

Key:
rabbit platelets [1] = assay: In vitro rabbit platelet aggregation induced by ADP, collagen, AA or A 23187 Ca ionophor; type: cell-based
Description: We compared on rabbit platelets the in vitro antiaggregatory effect , of acetylsalicylic acid (ASA), salicylic acid (SA). Pentoxifylline (Pentox or Trental), Nospa, Papaverine and Depogen. The aggregation of the rabbit platelets was induced by adenosine diphosphate (ADP), arachidonic acid (AA), Collagen and A 23187 Ca ionophor.

rabbit platelets [2] = assay: Inhibition of PAF induced platelet aggregation; type: cell-based; details: aggregation induced by 1 µM of PAF
rabbit platelets [3] = assay: Inhibition of PAF induced serotonine release in platelets; type: cell-based; details: release induced by 5 x 10⁻⁸ M of PAF
platelet aggregation = assay: Ex vivo platelet aggregation after administration; type: in vivo, rabbits
thrombus formation = assay: In vivo thrombus formation on cotton thread in arterio-venous plastic vessel shunt; set-up: species or system anaesthetised rabbits
Description: We investigated furthermore the in vivo antithrombotic effect of Depogen on anaesthetised rabbits. Depogen was administered intravenously in a dose range of 2.5-7.5 mg/kg. The vena yugularis was connected with the arteria carotis with the help of a plastic vessel. In the plastic vessel a cotton thread was placed, which served as inductor. The amount of thrombus sticked to the surface of the cotton was weighed in the case of the treated and untreated animals (after Herrmann R.G. et al., Proc. Soc. Exp. Biol. Med. 139, 548-552, 1972.)

[4] = test system: prostacyclin release from the aorta; assay: In vitro prostacyclin (PGI2) release from the aorta; type: cell-based; details: in vitro (Figure 6)
Description: From the point of view of PGI2 release Depogen represents a considerable […] compared to Pentoxifylline, as the ratio of the doses inhibiting platelet aggregation and increasing PGI2 release is lower for Depogen than for Pentoxifylline (Table 6) and thus the effective dose ranges of the two actions are closer to each other in the case of Depogen.

[5] = test system: thromboxane and prostacyclin level of the blood plasma; assay: Thromboxane and prostacyclin level of the blood plasma after 4 days per os administration; type: in vivo; details: rat, determined on the 5th day
Description: We investigated the effect of Depogen on the thromboxane and prostacyclin level of the blood plasma, in rat, after 4 days of per os administration in doses of 5 mg/kg and 10 mg/kg. On the 5th day we determined the thromboxane and prostacyclin level of the blood plasma (Table 7).

[6] = test system: acified ethanol- and indomethacine- induced ulceration; assay: Acidified ethanol- and indomethacin-induced ulceration; type: in vivo; details: rat, in the antiaggregatory dose
Description: The active ingredients according to the present invention, first of all Depogen, have further advantages compared with the widespreadly used ASA. ASA has significant gastrointestinal adverse effects, such as peptic ulcer, gastric haemorrhage. Depogen has no such adverse effect, and what is more, it has a weak ulcus-preventing activity. According to the measurements, in the antiaggregatory dose it exerts a 25-50 % inhibition on the acified ethanol- and indomethacine- induced ulceration in rat.

[7] = Table 5, unit inferred, aggregation induced by A 23187, read-out: Antiaggregatory Effect A 23187
[8] = Table 5, unit inferred, aggregation induced by AA, read-out: Antiaggregatory Effect AA
[9] = Table 5, unit inferred, aggregation induced by ADP, read-out: Antiaggregatory Effect ADP
[10] = Table 5, unit inferred, aggregation induced by Collagen, read-out: Antiaggregatory Effect Collagen
[11] = aggregation induced by A-23187 Ca ionophor, in vitro, read-out: IC50 rabbit platelet aggregation, A-23187
[12] = aggregation induced by ADP, in vitro, read-out: IC50 rabbit platelet aggregation, ADP
[13] = aggregation induced by Collagen, in vitro, read-out: IC50 rabbit platelet aggregation, Collagen
[14] = aggregation induced by arachidonic acid (AA), in vitro, read-out: IC50 rabbit platelet aggregation, AA
[15] = Oryctolagus cuniculus, Platelet
[16] = p.o. 10 mg/kg/day during 4 days
[17] = Oryctolagus cuniculus, Platelet, read-out: IC50 rabbit platelet aggregation, A-23187
[18] = Oryctolagus cuniculus, Platelet, read-out: IC50 rabbit platelet aggregation, AA
[19] = Oryctolagus cuniculus, Platelet, read-out: IC50 rabbit platelet aggregation, ADP
[20] = Oryctolagus cuniculus, Platelet, read-out: IC50 rabbit platelet aggregation, Collagen
[21] = Oryctolagus cuniculus, Platelet, aggregation induced by A-23187 Ca ionophor, in vitro, read-out: IC50 rabbit platelet aggregation, A-23187
[22] = Oryctolagus cuniculus, Platelet, aggregation induced by ADP, in vitro, read-out: IC50 rabbit platelet aggregation, ADP
[23] = Oryctolagus cuniculus, Platelet, aggregation induced by Collagen, in vitro, read-out: IC50 rabbit platelet aggregation, Collagen
[24] = Oryctolagus cuniculus, Platelet, aggregation induced by arachidonic acid (AA), in vitro, read-out: IC50 rabbit platelet aggregation, AA

Row | IC50 (rabbit platelets [1]; [7]) [µM] | IC50 (rabbit platelets [1]; [8]) [µM] | IC50 (rabbit platelets [1]; [9]) [µM] | IC50 (rabbit platelets [1]; [10]) [µM] | IC50 (rabbit platelets [1]; [11]) [µM] | IC50 (rabbit platelets [1]; [12]) [µM] | IC50 (rabbit platelets [1]; [13]) [µM] | IC50 (rabbit platelets [1]; [14]) [µM] | SMILES | IC50 (rabbit platelets [2]; [15]) [µM] | IC50 (rabbit platelets [3]; [15]) [µM] | IC50 (rabbit platelets [1]; [17]) [µM] | IC50 (rabbit platelets [1]; [18]) [µM] | IC50 (rabbit platelets [1]; [19]) [µM] | IC50 (rabbit platelets [1]; [20]) [µM] | IC50 (rabbit platelets [1]; [21]) [µM] | IC50 (rabbit platelets [1]; [22]) [µM] | IC50 (rabbit platelets [1]; [23]) [µM] | IC50 (rabbit platelets [1]; [24]) [µM] | other results
1 | 228 | 240 | 247 | 140 | 230 | 247 | 140 | 240 | CCOc1ccc(CC2=NCCc3cc(OCC)c(OCC)cc32)cc1OCC [Depogen, (3′,4′-diethoxy-benzyl)-6,7-diethoxy-3,4-dihydroisoquinolinium theophyllin-7-acetate] | 684 | 118 | – | – | – | – | – | – | – | – | antiaggregatory effect, times stronger than that of ASA (rabbit platelets [1]; compared with ASA, in vitro): 10-20 times; inhibition at 2.5 mg/kg (platelet aggregation; Oryctolagus cuniculus, Platelet, iv, dose 2.5 mg/kg intravenously, read-out: Inhibitory Effect % ex vivo aggregation): 30 ± 4%; inhibition at 5 mg/kg (platelet aggregation; Oryctolagus cuniculus, Platelet, iv, dose 5.0 mg/kg intravenously, read-out: Inhibitory Effect % ex vivo aggregation): 45 ± 5%; inhibition at 7.5 mg/kg (platelet aggregation; Oryctolagus cuniculus, Platelet, iv, dose 7.5 mg/kg intravenously, read-out: Inhibitory Effect % ex vivo aggregation): 55 ± 6%; antiaggregatory effect in ex vivo experiments (platelet aggregation; after oral and intravenous administration (Figures 3 and 4)): significant antiaggregatory effect; Inhibitory Effect % in vivo thrombus formation (thrombus formation; dose 2.5 mg/kg intravenously): 25± 3%; Inhibitory Effect % in vivo thrombus formation (thrombus formation; dose 5.0 mg/kg intravenously): 45± 5%; Inhibitory Effect % in vivo thrombus formation (thrombus formation; dose 7.5 mg/kg intravenously): 60± 7%; prostacyclin release from the aorta [4]: significantly enhances; PGI2 ([5]; p.o. 5 mg/kg/day during 4 days): 206.4± 11.2 pg/ml of plasma; PGI2/TxA2 ([5]; p.o. 5 mg/kg/day during 4 days): 4.2; TxA2 ([5]; p.o. 5 mg/kg/day during 4 days): 48.7± 3.9 pg/ml of plasma; PGI2 [5, 16]: 363.8± 19.3 pg/ml of plasma; PGI2/TxA2 [5, 16]: 11; TxA2 [5, 16]: 33.7± 3.6 pg/ml of plasma; inhibition on the acified ethanol- and indomethacine- induced ulceration [6]: 25-50%
2 | – | – | – | – | – | – | – | – | O=C(O)c1ccccc1O [Salicylic acid, salicylic acid, reference compound] | – | – | 2610 | 1010 | 1380 | 1300 | – | – | – | – | –
3 | – | – | – | – | – | – | – | – | CC(=O)CCCCn1c(=O)c2c(ncn2C)n(C)c1=O [Pentoxifylline, reference compound] | 1000 | 800 | – | – | – | – | 2770 | 2660 | 2050 | 1870 | IC50 (rabbit platelets [1]; Oryctolagus cuniculus, Platelet, Table 5, unit inferred, aggregation induced by AA, read-out: Antiaggregatory Effect AA): 1870 µM; IC50 (rabbit platelets [1]; Oryctolagus cuniculus, Platelet, Table 5, unit inferred, aggregation induced by ADP, read-out: Antiaggregatory Effect ADP): 2660 µM; IC50 (rabbit platelets [1]; Oryctolagus cuniculus, Platelet, Table 5, unit inferred, aggregation induced by Collagen, read-out: Antiaggregatory Effect Collagen): 2050 µM
4 | 840 | 810 | 740 | 580 | 840 | 740 | 580 | 810 | CCOc1ccc(CC2=NCCc3cc(OCC)c(OCC)cc32)cc1OCC [Nospa, 1-(3-,4′-diethoxybenzyl)-6,7-diethoxy-3,4-dihydro-iso-quinoline] | – | – | – | – | – | – | – | – | – | – | IC50 (rabbit platelets [2]): 756 µM; IC50 (rabbit platelets [3]): 96 µM
5 | – | – | – | – | – | – | – | – | CC(=O)Oc1ccccc1C(=O)O [ASA, acetylsalicylic acid, reference compound] | – | – | – | – | – | – | 2440 | 4050 | 2610 | 780 | –
6 | – | – | – | – | – | – | – | – | COc1ccc(Cc2nccc3cc(OC)c(OC)cc23)cc1OC [Papaverine, 1-(3′,4′-dimethoxy-benzyl)-6,7-dimethoxy-isoquinoline] | 656 | 48.2 | 1060 | 130 | 190 | 270 | – | – | – | – | IC50 (rabbit platelets [1]; Oryctolagus cuniculus, Platelet, read-out: Antiaggregatory Effect A 23187): 1060 µM; IC50 (rabbit platelets [1]; Oryctolagus cuniculus, Platelet, read-out: Antiaggregatory Effect AA): 130 µM; IC50 (rabbit platelets [1]; Oryctolagus cuniculus, Platelet, read-out: Antiaggregatory Effect ADP): 190 µM; IC50 (rabbit platelets [1]; Oryctolagus cuniculus, Platelet, read-out: Antiaggregatory Effect Collagen): 270 µM
